Test results: patent publication US10280159B2 (AbbVie Deutschland GmbH & Co. KG, priority 2015, dated 2019)

Legend:
Type in all cases: cell-based
human S1PR5 = target: T1, human S1PR5 (Homo sapiens, UniProt Q9H228); assay: Intracellular Ca2+ release (FLIPR) agonist potency, S1P5; details: recombinant CHO-K1 cells expressing human S1PR5, aequorin, Gq/i5; Calcium 5 FLIPR; read-out: S1P5 EC50 range
T1 construct: host or cells: CHO-K1
Summary of the method: (§1)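 Readout: FLIPR fluorescence of intracellular Ca2+ release in CHO-K1 cells co-expressing receptor, aequorin and Gq/i5. Data were normalized to the phospho-fingolimod curve; EC50 from nonlinear fit. Phospho-fingolimod served as positive control.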

human S1PR1 = target: T2, human S1PR1 (Homo sapiens, UniProt P21453); assay: Intracellular Ca2+ release (FLIPR) agonist potency, S1P1; details: recombinant CHO-K1 cells expressing human S1PR1, aequorin, Gq/i5; Calcium 5 FLIPR; read-out: S1P1 EC50
T2 construct: host or cells: CHO-K1
T2 sequence (P21453 whole entry): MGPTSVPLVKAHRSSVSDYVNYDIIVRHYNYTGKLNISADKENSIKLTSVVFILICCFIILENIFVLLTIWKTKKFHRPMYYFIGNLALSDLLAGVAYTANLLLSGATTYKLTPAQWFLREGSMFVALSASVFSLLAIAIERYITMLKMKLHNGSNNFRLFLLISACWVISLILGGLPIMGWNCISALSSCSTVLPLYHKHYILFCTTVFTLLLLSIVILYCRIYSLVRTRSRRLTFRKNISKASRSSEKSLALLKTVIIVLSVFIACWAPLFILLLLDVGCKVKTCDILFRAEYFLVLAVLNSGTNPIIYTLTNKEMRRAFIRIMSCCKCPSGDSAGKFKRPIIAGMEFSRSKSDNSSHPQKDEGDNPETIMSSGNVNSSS
Summary of the method: as §1

human S1PR4 = target: T3, human S1PR4 (Homo sapiens, UniProt O95977); assay: Intracellular Ca2+ release (FLIPR) agonist potency, S1P4; details: recombinant CHO-K1 cells expressing human S1PR4, aequorin, Gq/i5; Calcium 5 FLIPR; read-out: S1P4 EC50
T3 construct: host or cells: CHO-K1
T3 sequence (O95977 1-384): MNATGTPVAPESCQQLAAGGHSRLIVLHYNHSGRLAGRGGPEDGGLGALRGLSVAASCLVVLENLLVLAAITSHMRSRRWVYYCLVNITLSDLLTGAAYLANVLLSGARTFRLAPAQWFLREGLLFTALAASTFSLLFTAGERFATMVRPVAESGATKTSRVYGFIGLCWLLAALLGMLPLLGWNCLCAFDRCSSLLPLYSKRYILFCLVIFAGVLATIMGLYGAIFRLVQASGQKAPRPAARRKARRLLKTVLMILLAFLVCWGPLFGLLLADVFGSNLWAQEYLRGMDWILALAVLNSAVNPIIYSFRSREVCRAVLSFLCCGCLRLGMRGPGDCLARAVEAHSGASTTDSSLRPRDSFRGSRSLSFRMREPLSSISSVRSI
Summary of the method: as §1

T1 sequence (Q9H228 whole entry): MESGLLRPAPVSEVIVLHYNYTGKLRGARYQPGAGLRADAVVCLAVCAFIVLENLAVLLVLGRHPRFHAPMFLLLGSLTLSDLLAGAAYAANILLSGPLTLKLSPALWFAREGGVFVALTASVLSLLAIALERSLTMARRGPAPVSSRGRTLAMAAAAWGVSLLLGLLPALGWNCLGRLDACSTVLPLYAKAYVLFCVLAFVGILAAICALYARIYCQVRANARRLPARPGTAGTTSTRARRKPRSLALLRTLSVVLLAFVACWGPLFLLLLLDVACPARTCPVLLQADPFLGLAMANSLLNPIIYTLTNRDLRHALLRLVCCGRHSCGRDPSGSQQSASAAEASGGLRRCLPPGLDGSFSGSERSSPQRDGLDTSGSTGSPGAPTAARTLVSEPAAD

Q: How did the EC50 (human S1PR5) turn out when `O=C(O)CCOC1CCc2cc(OCc3ccc(Cl)c(Cl)c3)ccc2C1` (stereo not drawn) [Compound 181, 3-[6-[(3,4-dichlorophenyl)methoxy]tetralin-2-yl]oxypropanoic acid] was run?
A: 1 to 10 µM

Q: And the EC50 (human S1PR1)?
A: > 1 µM

Q: And the EC50 (human S1PR4)?
A: > 1 µM

Q: Which EC50 (human S1PR5) does the source give for `Cc1ccc(C(F)(F)F)c(COc2ccc3c(c2)CCC(OCC(=O)O)C3)c1` (stereo not drawn) [Compound 195, 2-[6-[[5-methyl-2-(trifluoromethyl)phenyl]methoxy]tetralin-2-yl]oxyacetic acid] here?
A: 1 to 10 µM

Q: What about the EC50 (human S1PR1) of the same compound?
A: > 1 µM

Q: What about the EC50 (human S1PR4) of the same compound?
A: > 1 µM

Q: `Cc1c(COc2ccc3c(c2)CCC(OCC(=O)O)C3)cccc1C(F)(F)F` (stereo not drawn) [Compound 200, 2-[6-[[2-methyl-3-(trifluoromethyl)phenyl]methoxy]tetralin-2-yl]oxyacetic acid] was tested. Which EC50 (human S1PR5) did it give?
A: 1 to 10 µM

Q: And the EC50 (human S1PR1)?
A: > 1 µM

Q: What about the EC50 (human S1PR4) of the same compound?
A: > 1 µM

Q: How did the EC50 (human S1PR5) turn out when `O=C(O)CCOC1CCc2cc(OCc3ccccc3OC(F)(F)F)ccc2C1` (stereo not drawn) [Compound 190, 3-[6-[[2-(trifluoromethoxy)phenyl]methoxy]tetralin-2-yl]oxypropanoic acid] was run?
A: 1 to 10 µM

Q: And the EC50 (human S1PR1)?
A: > 1 µM

Q: And the EC50 (human S1PR4)?
A: > 1 µM

Q: Which results are given for `CCc1cccc(Cl)c1COc1ccc2c(c1)OCC(N1CCC(CC(=O)O)C1)C2` (stereo not drawn) [Compound 125, 2-(1-(7-((2-chloro-6-ethylbenzyl)oxy)chroman-3-yl)pyrrolidin-3-yl)acetic acid]?
A: EC50 (human S1PR5): < 0.01 µM; EC50 (human S1PR1): > 1 µM; EC50 (human S1PR4): < 1 µM

Q: How did the EC50 (human S1PR5) turn out when `O=C(O)CCOC1CCc2cc(OCc3cccc(F)c3F)ccc2C1` (stereo not drawn) [Compound 186, 3-[6-[(2,3-difluorophenyl)methoxy]tetralin-2-yl]oxypropanoic acid] was run?
A: 1 to 10 µM

Q: And the EC50 (human S1PR1)?
A: > 1 µM

Q: What about the EC50 (human S1PR4) of the same compound?
A: > 1 µM

Q: Which EC50 (human S1PR5) does the source give for `O=C(O)C1(CNC2COc3cc(OCc4c(Cl)cccc4Cl)ccc3C2)CC1` (stereo not drawn) [Compound 49, 1-(((7-((2,6-dichlorobenzyl)oxy)chroman-3-yl)amino)methyl)cyclopropanecarboxylic acid] here?
A: 0.1 to 1 µM

Q: And the EC50 (human S1PR1)?
A: > 1 µM

Q: And the EC50 (human S1PR4)?
A: < 1 µM

Q: With `CCC1(C(=O)O)CN([C@@H]2COc3cc(OCc4c(Cl)cccc4Cl)ccc3C2)C1` [Compound 140, (S)-1-(7-((2,6-dichlorobenzyl)oxy)chroman-3-yl)-3-ethylazetidine-3-carboxylic acid] as the compound, how does the EC50 (human S1PR5) read?
A: 1 to 10 µM

Q: What about the EC50 (human S1PR1) of the same compound?
A: > 1 µM

Q: And the EC50 (human S1PR4)?
A: > 1 µM

Q: `O=C(O)C1CN(C2COc3cc(OCCc4ccccc4Cl)ccc3C2)C1` (stereo not drawn) [Compound 227, 1-[7-[2-(2-chlorophenyl)ethoxy]chroman-3-yl]azetidine-3-carboxylic acid] was tested. Which EC50 (human S1PR5) did it give?
A: 1 to 10 µM

Q: And the EC50 (human S1PR1)?
A: > 1 µM

Q: What about the EC50 (human S1PR4) of the same compound?
A: > 1 µM

Q: What does the source list for `O=C(O)C1CN(C2COc3cc(OCc4cc(F)ccc4C(F)(F)F)ccc3C2)C1` (stereo not drawn) [Compound 91, 1-[7-[[5-fluoro-2-(trifluoromethyl)phenyl]methoxy]chroman-3-yl]azetidine-3-carboxylic acid]?
A: EC50 (human S1PR5): 0.1 to 1 µM; EC50 (human S1PR1): > 1 µM; EC50 (human S1PR4): > 1 µM

Q: What does the source list for `O=C(O)C1CN(C2COc3cc(OCc4ccccc4Cl)ccc3C2)C1` (stereo not drawn) [Compound 63, 1-(7-((2-chlorobenzyl)oxy)chroman-3-yl)azetidine-3-carboxylic acid]?
A: EC50 (human S1PR5): 0.1 to 1 µM; EC50 (human S1PR1): > 1 µM; EC50 (human S1PR4): > 1 µM

Q: `CC(Oc1ccc2c(c1)OCC(N1CC(C(=O)O)C1)C2)c1ccccc1F` (stereo not drawn) [Compound 107, 1-[7-[1-(2-fluorophenyl)ethoxy]chroman-3-yl]azetidine-3-carboxylic acid] was tested. Which EC50 (human S1PR5) did it give?
A: 1 to 10 µM

Q: What about the EC50 (human S1PR1) of the same compound?
A: > 1 µM

Q: What about the EC50 (human S1PR4) of the same compound?
A: > 1 µM

Q: For `CCOc1ccc(C#Cc2ccc3c(c2)OCC(N2CC(C(=O)O)C2)C3)cc1` (stereo not drawn) [Compound 45, 1-(7-((4-ethoxyphenyl)ethynyl)chroman-3-yl)azetidine-3-carboxylic acid], which EC50 (human S1PR5) is on record?
A: 0.1 to 1 µM

Q: And the EC50 (human S1PR1)?
A: < 1 µM

Q: And the EC50 (human S1PR4)?
A: > 1 µM

Q: What does the source list for `O=C(O)C1CN(C2COc3cc(OCc4ccccc4F)ccc3C2)C1` (stereo not drawn) [Compound 3, 1-(7-((2-fluorobenzyl)oxy)chroman-3-yl)azetidine-3-carboxylic acid]?
A: EC50 (human S1PR5): 1 to 10 µM; EC50 (human S1PR1): > 1 µM; EC50 (human S1PR4): > 1 µM

Q: With `O=C(O)C1CN(C2COc3cc(OCc4c(Cl)cccc4Cl)ccc3C2)C1` (single isomer, unassigned) [Compound 144, 1-(7-((2,6-dichlorobenzyl)oxy)chroman-3-yl)azetidine-3-carboxylic acid] as the compound, how does the EC50 (human S1PR5) read?
A: 0.01 to 0.1 µM

Q: What about the EC50 (human S1PR1) of the same compound?
A: > 1 µM

Q: What about the EC50 (human S1PR4) of the same compound?
A: > 1 µM

Q: Which EC50 (human S1PR5) does the source give for `O=C(O)COC1CCc2cc(OCc3ccccc3Cl)ccc2C1` (stereo not drawn) [Compound 206, 2-[6-[(2-chlorophenyl)methoxy]tetralin-2-yl]oxyacetic acid] here?
A: 1 to 10 µM

Q: And the EC50 (human S1PR1)?
A: > 1 µM

Q: And the EC50 (human S1PR4)?
A: > 1 µM
